{
  "source": "patent US12240811B2",
  "about": "“N-heterocyclic five-membered ring-containing capsid protein assembly inhibitor, pharmaceutical composition and uses thereof” (CHIA TAI TIANQING PHARMACEUTICAL GROUP CO., LTD., priority 2019, dated 2025)",
  "key": {"[1]": {"tested_on": "HBV DNA in HepG2.2.15 cells", "assay": "In vitro cell HBV DNA inhibitory activity in HepG2.2.15 cells", "type": "cell-based", "details": "Hepatitis B virus, 144 h, 6 days treatment, intracellular capsid HBV DNA by qPCR, read-out: EC50, anti-HBV activity in HepG2.2.15 cells", "procedure": "A bottle of HepG2.2.15 (Wuhan Institute of Virology) or HepAD38 cells in good exponential growth state was taken, washed once by adding 5 mL PBS, and then thereto was added 3 mL trypsin. After digesting at room temperature for 5 min, 2 mL trypsin was discarded, and then the sample was placed in a cell culture incubator and digested for 10 min. The cells were taken out and observed under a microscope (whether the cells were individually round and there was no adhesion between the cells). 10 mL complete medium was added to terminate the digestion. After pipetting into a single cell suspension, 10 μL of the cell suspension was taken out for cell counting with a cell counter, and then diluted with a complete medium and adjusted to a cell density of 1*10^5 cells/mL. […]\nCompounds dissolved in DMSO were subjected to two-fold gradient dilution (10 concentrations in total) with complete medium. […] After lysing at room temperature for 10 min, DNA was extracted, and HBV DNA in the intracellular viral capsid was measured by real-time fluorescence quantitative PCR. The inhibition rate was calculated based on the Ct value, and the EC50 value was calculated by the four-parameter method."}, "CYP 2B6": {"target": "CYP 2B6 (Homo sapiens (Human), UniProt P20813)", "sequence (P20813 whole entry)": "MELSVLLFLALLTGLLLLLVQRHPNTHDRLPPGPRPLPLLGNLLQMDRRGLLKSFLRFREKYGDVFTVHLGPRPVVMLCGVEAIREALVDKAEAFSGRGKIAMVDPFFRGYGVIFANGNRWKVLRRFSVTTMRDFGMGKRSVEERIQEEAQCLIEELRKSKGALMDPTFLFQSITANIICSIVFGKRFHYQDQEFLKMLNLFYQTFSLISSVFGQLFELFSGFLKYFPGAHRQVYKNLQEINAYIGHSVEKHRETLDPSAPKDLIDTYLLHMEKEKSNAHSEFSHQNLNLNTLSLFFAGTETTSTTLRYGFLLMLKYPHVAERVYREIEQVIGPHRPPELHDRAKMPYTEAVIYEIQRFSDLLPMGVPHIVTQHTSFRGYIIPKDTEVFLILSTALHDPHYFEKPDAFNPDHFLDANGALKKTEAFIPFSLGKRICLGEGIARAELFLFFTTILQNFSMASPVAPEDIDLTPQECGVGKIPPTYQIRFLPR", "assay": "CYP450 enzyme inhibition study, CYP 2B6", "type": "in vitro ADME", "details": "human liver microsomes; read-out: Subtypes IC50 2B6", "procedure": "500 μL of a final incubation system contains 50 μL of human liver microsomes (protein concentration: 0.2 mg/mL, Corning), 1 μL of mixed CYP450 specific substrates (CYP1A2, CYP 2B6, CYP 2C9, CYP2C19, CYP 2D6, and CYP 3A4), 398 μL PBS buffer (pH7.4), 1 μL specific positive inhibitor (positive control group) or the test compound (formulated with acetonitrile), and 50 μL NADPH+MgCl2. Duplicate incubation systems of 0.5 mL each were formulated for each CYP450 subtype. A total volume of 450 μL of a uniformly mixed solution of the substrate and the enzyme was formulated in each tube, and the solution and NADPH were pre-incubated at 37° C. for 5 minutes, respectively. Then 50 μL of the mixed solution of NADPH+MgCl2 was added for reaction. 50 μL of the reaction solution was taken out at 30 minutes, and the reaction was terminated with 300 μL of ice acetonitrile containing an internal standard. In addition, two control groups of 500 μL each without NADPH were prepared in parallel as a negative control group.\nSample pre-treatment: To 50 μL of the incubated sample was added 300 μL of ice acetonitrile containing an internal standard, and then precipitated. After vortexing for 5 minutes, the sample was centrifugated (12000 rpm, 4° C.) for 10 minutes. 75 μL of the supernatant was pipetted, and 75 μL of ultrapure water was added thereto for dilution and mixed uniformly. […]"}, "[2]": {"assay": "Plasma protein binding assay, mouse plasma", "type": "in vitro ADME", "procedure": "Formulation of plasma sample: 495 μL of blank plasmas of the corresponding species (mouse, rat, dog, monkey, and human) were drawn respectively, and thereto was added 5 μL of the corresponding test compound solution or positive control to give plasma sample solutions having a plasma drug concentration of the compound of 1 μM, and 10 μM, respectively (formulated with acetonitrile).\nThe pre-treated dialysis membrane was placed in a high-throughput equilibrium dialysis device, and 100 μL of the plasma sample solution and PBS buffer solution were drawn and added respectively to both sides of the dialysis membrane (sample side and buffer side) (n=3). After the equilibration device was sealed with a film, it was incubated at 37° C. overnight (100 rpm). After dialysis equilibrium was reached, 50 μL samples were drawn from the sample side and the buffer side, respectively, and the reaction was terminated by adding ice acetonitrile containing an internal standard.\nSample pre-treatment: To 50 μL of the plasma-side sample was added 450 μL of ice acetonitrile containing an internal standard, and then precipitated. After vortexing for 5 minutes, the sample was centrifugated (12000 rpm, 4° C.) for 10 minutes. 75 μL of the supernatant was pipetted, and 75 μL of ultrapure water was added thereto for dilution and mixed uniformly. 1 μL of the resulting solution was injected for analysis. […]"}, "[3]": {"assay": "Stability of liver microsomes in vitro, human", "type": "in vitro ADME", "procedure": "300 μL of a final incubation system contains 30 μL of liver microsomes (protein concentration: 0.15 mg/mL, Corning), 30 μL NADPH+MgCl2, 3 μL substrate (formulated with acetonitrile), and 237 μL PBS buffer. Duplicate incubation systems of 0.3 mL each were formulated for each species. A total volume of 270 μL of a uniformly mixed solution of the substrate and the enzyme was formulated in each tube, the solution and NADPH were pre-incubated at 37° C. for 5 minutes, respectively. Then 30 μL of the mixed solution of NADPH+MgCl2 was added for reaction. 50 μL of the reaction solution was taken out at 0, 10, 30, and 60 mins, and the reaction was terminated with 300 μL of ice acetonitrile containing an internal standard.\nSample pre-treatment: To 50 μL of the incubated sample was added 300 μL of ice acetonitrile containing diazepam as an internal standard and then precipitated. After vortexing for 5 minutes, the sample was centrifugated (12000 rpm, 4° C.) for 10 minutes. 75 μL of the supernatant was pipetted into a 96-well plate, and then diluted with 75 μL ultrapure water and mixed uniformly. 0.5 μL of the resulting solution was injected and analyzed by LC-MS/MS."}},
  "data": [
    {"smiles": "Cc1[nH]c(C(=O)C(=O)N[C@@H](C)C(F)(F)F)c(C)c1C(=O)Nc1ccc(F)c(C#N)c1", "note": "[Example 1, (S)—N-(3-cyano-4-fluorophenyl)-2,4-dimethyl-5-(2-oxo-2-((1,1,1-trifluoroprop-2-yl)amino)acetyl)-1H-pyrrole-3-carboxamide]", "values": [
      {"measurement": "EC50", "setting": "[1]", "value": 17.4, "unit": "nM"},
      {"measurement": "IC50", "setting": "CYP 2B6", "value": "> 200000", "unit": "nM"},
      {"measurement": "Binding rate (%) Mouse", "setting": "[2]; 1 μM", "value": 85.4, "unit": "%"},
      {"measurement": "Binding rate (%) Mouse", "setting": "[2]; 10 μM", "value": 85.5, "unit": "%"},
      {"measurement": "Remaining (%) of human liver microsomes at 60 min", "setting": "[3]", "value": 99, "unit": "%"}
    ]}
  ]
}
